Assay results from patent US7371733B2, “Anti bacterial compounds” (Utah State University, priority 2006, dated 2008).
≈ marks a conversion by molar mass, not a printed value. Read-outs that look alike come from different tables or passages of the source.

What was measured:
E. coli (TG1) (pSF815) [1] = conditions: for Minimum Inhibitory Concentrations (MIC): Table 2 entry 3, E. coli (TG1) pSF815 plasmid encoded for AAC(6′)/APH(2″); for Minimum Inhibitory Concentration: Table 1, E. coli (TG1) (pSF815), plasmid encoded for AAC6′/APH2″
Description: (§1) After the synthesis was completed, both representative aminoglycosides were assayed in standard dilution and diffusion assay against aminoglycoside susceptible and resistant strains of Escherichia coli using amikacin, kanamycin, ribostamycin, and butirosin as the controls. One resistant strain is equipped with the pTZ19-3 plasmid encoded for APH(3′)-I, which renders resistance to kanamycin, neomycin, lividomycin, paromomycin, and ribostamycin. The other resistant strain is equipped with the pSF815 plasmid encoded for AAC(6′) and APH(2″), which produces a bifunctional enzyme that catalyzes acetylation of amino group at C-6′ and phosphorylation of hydroxyl group at C-2″ position. This bifunctional enzyme enables bacteria to acquire resistance against gentamycin, amikacin, tobramycin, netilmicin, and kanamycin.
(§2) E. coli (pSF815) and E. coli (pTZ19U-3) are laboratory resistant strains using E. coli (TG1) as the host.

[2] = system: Klebsiella pneumoniae (ATCC 700603); conditions: Table 2 entry 5
Excerpt: as §2

[3] = system: K. pneumoniae (ATCC 13883); test: MIC, standard reference strain; conditions: for Minimum Inhibitory Concentrations (MIC): Table 2 entry 6, K. pneumoniae (ATCC 13883); for MIC: Klebsiella pneumoniae, ATCC13883, read-out: Minimum Inhibitory Concentrations (MIC)
Excerpt: as §2

[4] = system: Escherichia coli (ATCC 25922); test: MIC, standard reference strain; conditions: for Minimum Inhibitory Concentrations (MIC): Table 2 entry 1, Escherichia coli (ATCC 25922); for MIC: Escherichia coli, ATCC25922, read-out: Minimum Inhibitory Concentrations (MIC)
Excerpt: as §2

E. coli (TG1) = test: MIC, standard dilution and diffusion assay, aminoglycoside susceptible strain; conditions: for Minimum Inhibitory Concentrations (MIC): Table 2 entry 2, E. coli (TG1) aminoglycoside susceptible strain; for MIC: Escherichia coli
Description: as §1, §2

[5] = system: Staphylococcus aureus (ATCC 33591) (MRSA); test: MIC, methicillin-resistant S. aureus; conditions: for Minimum Inhibitory Concentrations (MIC): Table 2 entry 7, Staphylococcus aureus (ATCC 33591) (MRSA); for MIC: Staphylococcus aureus, ATCC33591|MRSA, read-out: Minimum Inhibitory Concentrations (MIC)
Excerpt: as §2

S. aureus (ATCC 25923) = test: MIC, standard reference strain; conditions: for Minimum Inhibitory Concentrations (MIC): Table 2 entry 8, S. aureus (ATCC 25923); for MIC: Staphylococcus aureus, ATCC25923, read-out: Minimum Inhibitory Concentrations (MIC)
E. coli (TG1) (pTZ19U-3) [6] = conditions: for Minimum Inhibitory Concentrations (MIC): Table 2 entry 4, E. coli (TG1) pTZ19U-3 plasmid encoded for APH(3′)-I; for Minimum Inhibitory Concentration: Table 1, E. coli (TG1) (pTZ19U-3), plasmid encoded for APH(3′)-I
Description: as §1, §2

[7] = system: Pseudomonas aeruginosa (ATCC 27853); conditions: for Minimum Inhibitory Concentrations (MIC): Table 2 entry 9, Pseudomonas aeruginosa (ATCC 27853)
Excerpt: as §2

E. coli (TG1) (pTZ19U-3) [8] = test: microbe, parasite or virus in culture; conditions: Escherichia coli
Description: as §1, §2

E. coli (TG1) (pSF815) [9] = test: microbe, parasite or virus in culture; conditions: Escherichia coli
Description: as §1, §2

[10] = system: Pseudomonas aeruginosa (ATCC 27853); test: microbe, parasite or virus in culture; conditions: ATCC27853, read-out: Minimum Inhibitory Concentrations (MIC)
Excerpt: as §2

[11] = system: Klebsiella pneumoniae (ATCC 700603); test: microbe, parasite or virus in culture; conditions: ATCC700603, read-out: Minimum Inhibitory Concentrations (MIC)
Excerpt: as §2

[12] = read-out: Minimum Inhibitory Concentrations (MIC)
[13] = read-out: Minimum Inhibitory Concentration

Row | Molecule | Minimum Inhibitory Concentrations (MIC) [2] | Minimum Inhibitory Concentrations (MIC) [5] | Minimum Inhibitory Concentrations (MIC) [7] | MIC (E. coli (TG1) (pTZ19U-3) [8]; [12]) [µg/mL] | MIC [3] [µg/mL] | MIC (E. coli (TG1) (pSF815) [9]; [13]) [µg/mL] | MIC (E. coli (TG1) (pSF815) [9]; [12]) [µg/mL] | MIC (E. coli (TG1); [13]) [µg/mL] | MIC (E. coli (TG1); [12]) [µg/mL] | MIC (E. coli (TG1) (pTZ19U-3) [8]; [13]) [µg/mL] | MIC [11] [µg/mL] | further results
1 | gentamicin | 8 to 16 µg/mL | 4 µg/mL | 0.5 to 1 µg/mL | – | – | – | – | – | – | – | – | Minimum Inhibitory Concentrations (MIC) (E. coli (TG1) (pSF815) [1]): Inactive ^k; Minimum Inhibitory Concentrations (MIC) [3]: 1 µg/mL; Minimum Inhibitory Concentrations (MIC) [4]: 2 µg/mL; Minimum Inhibitory Concentrations (MIC) (E. coli (TG1)): 2 µg/mL; Minimum Inhibitory Concentrations (MIC) (S. aureus (ATCC 25923)): 0.5 µg/mL; Minimum Inhibitory Concentrations (MIC) (E. coli (TG1) (pTZ19U-3) [6]): 1 µg/mL
2 | NC[C@H]1O[C@H](O[C@H]2[C@H](O[C@@H]3O[C@H](CO)[C@@H](O)[C@H]3O)[C@@H](O)[C@H](N)C[C@@H]2N)[C@H](N)[C@@H](O)[C@@H]1O [Ribostamycin, ribostamycin] | Inactive | Inactive | Inactive | 32 (≈ 70.4 µM) | 4 (≈ 8.8 µM) | 16 (≈ 35.2 µM) | 16 (≈ 35.2 µM) | 2 (≈ 4.4 µM) | 2 (≈ 4.4 µM) | – | – | MIC [4]: 8 µg/mL (≈ 17.6 µM); MIC (S. aureus (ATCC 25923)): 8 µg/mL (≈ 17.6 µM); Minimum Inhibitory Concentration (E. coli (TG1) (pTZ19U-3) [6]): Inactive
3 | CC1O[C@@H](O[C@@H]2C(O)C(N)CC(N)C2O[C@H]2OC(CN)[C@@H](O)C(O)C2N)C(O)C(O)[C@@H]1N (stereo partly shown) [TC005, pyranmycin] | – | – | – | – | – | – | – | 8 (≈ 17.1 µM) | – | 8 (≈ 17.1 µM) | – | Minimum Inhibitory Concentration (E. coli (TG1) (pSF815) [1]): Inactive
4 | butirosin | 0.5 µg/mL | Inactive | Inactive | – | – | – | – | – | – | – | – | Minimum Inhibitory Concentration (E. coli (TG1) (pSF815) [1]): 0.5 µg/mL; Minimum Inhibitory Concentrations (MIC) (E. coli (TG1) (pSF815) [1]): 0.25 µg/mL; Minimum Inhibitory Concentrations (MIC) [3]: 0.5 to 1 µg/mL; Minimum Inhibitory Concentrations (MIC) [4]: 2 µg/mL; Minimum Inhibitory Concentration (E. coli (TG1); Table 1, E. coli (TG1)): 0.5 µg/mL; Minimum Inhibitory Concentrations (MIC) (E. coli (TG1)): 1 µg/mL; Minimum Inhibitory Concentrations (MIC) (S. aureus (ATCC 25923)): 2 µg/mL; Minimum Inhibitory Concentration (E. coli (TG1) (pTZ19U-3) [6]): 0.5 µg/mL; Minimum Inhibitory Concentrations (MIC) (E. coli (TG1) (pTZ19U-3) [6]): 0.5 µg/mL
5 | C[C@H]1O[C@@H](O[C@@H]2[C@@H](O)[C@H](NC(=O)[C@@H](O)CCN)C[C@H](N)[C@H]2O[C@H]2O[C@H](CN)CC[C@H]2N)[C@H](O)[C@@H](O)[C@@H]1N [pyrankacin] | – | – | – | 1 (≈ 1.86 µM) | 2 (≈ 3.73 µM) | – | 1 (≈ 1.86 µM) | – | 4 (≈ 7.45 µM) | – | 1 (≈ 1.86 µM) | MIC [4]: 4 µg/mL (≈ 7.45 µM); MIC [10]: 2 µg/mL (≈ 3.73 µM); MIC [5]: 8 µg/mL (≈ 14.9 µM); MIC (S. aureus (ATCC 25923)): 2 µg/mL (≈ 3.73 µM); activity against P. aeruginosa, in words ([7]; text statement summarising Table 2): active
6 | NCC[C@H](O)C(=O)N[C@@H]1C[C@H](N)[C@@H](O[C@H]2O[C@H](CN)[C@@H](O)[C@H](O)[C@H]2O)[C@H](O)[C@H]1O[C@H]1O[C@H](CO)[C@@H](O)[C@H](N)[C@H]1O [Amikacin, amikacin] | – | – | – | 0.5 (≈ 0.854 µM) | 1 (≈ 1.71 µM) | 1 (≈ 1.71 µM) | 1 (≈ 1.71 µM) | 1 (≈ 1.71 µM) | 1 (≈ 1.71 µM) | 0.5 (≈ 0.854 µM) | 0.5 to 1 (≈ 0.854 to 1.71 µM) | MIC [4]: 1 µg/mL (≈ 1.71 µM); MIC [10]: 0.5 to 1 µg/mL (≈ 0.854 to 1.71 µM); MIC [5]: 16 µg/mL (≈ 27.3 µM); MIC (S. aureus (ATCC 25923)): 1 µg/mL (≈ 1.71 µM)
7 | CC1O[C@@H](O[C@H]2C(O[C@H]3OC(CN)[C@@H](O)[C@H](O)C3N)C(N)C[C@@H](NC(=O)[C@@H](O)CCN)C2OCCN)C(O)[C@@H](O)[C@@H]1N (stereo partly shown) [JT050] | – | – | – | – | – | 2 (≈ 3.27 µM) | – | 8 (≈ 13.1 µM) | – | 4 (≈ 6.54 µM) | – | –
8 | CC1O[C@@H](O[C@@H]2C(O)[C@H](NC(=O)[C@@H](O)CCN)CC(N)[C@H]2O[C@H]2OC(CN)[C@@H](O)[C@H](O)C2N)C(O)[C@@H](O)[C@@H]1N (stereo partly shown) [JT005] | – | Inactive | Inactive | 4 (≈ 7.03 µM) | 2 (≈ 3.52 µM) | 4 (≈ 7.03 µM) | 4 (≈ 7.03 µM) | 4 (≈ 7.03 µM) | 4 (≈ 7.03 µM) | 4 (≈ 7.03 µM) | 1 to 2 (≈ 1.76 to 3.52 µM) | –
9 | CC1O[C@@H](O[C@@H]2C(OCCN)C(N)CC(N)C2O[C@H]2OC(CN)[C@@H](O)C(O)C2N)C(O)C(O)[C@@H]1N (stereo partly shown) [TC050] | – | – | – | – | – | – | – | 8 (≈ 15.7 µM) | – | 8 (≈ 15.7 µM) | – | Minimum Inhibitory Concentration (E. coli (TG1) (pSF815) [1]): Inactive
10 | CC1O[C@@H](O[C@H]2C(O[C@H]3OC(CN)CCC3N)C(N)C[C@@H](N)C2O)C(O)[C@@H](O)[C@@H]1N (stereo partly shown) [RR501, 3′,4′-Dideoxy Pyranmycin] | – | – | Inactive | 4 (≈ 9.18 µM) | 2 to 4 (≈ 4.59 to 9.18 µM) | 4 (≈ 9.18 µM) | 4 (≈ 9.18 µM) | 8 (≈ 18.4 µM) | 8 (≈ 18.4 µM) | 4 (≈ 9.18 µM) | 2 to 4 (≈ 4.59 to 9.18 µM) | MIC [5]: 4 µg/mL (≈ 9.18 µM); activity against resistant bacteria equipped with APH(3′), in words (E. coli (TG1) (pTZ19U-3) [6]; text statement summarising Table 1): active
11 | neomycin | Inactive | Inactive | Inactive | – | – | – | – | – | – | – | – | Minimum Inhibitory Concentrations (MIC) (E. coli (TG1) (pSF815) [1]): 2 µg/mL; Minimum Inhibitory Concentrations (MIC) [3]: 2 µg/mL; Minimum Inhibitory Concentrations (MIC) [4]: 4 µg/mL; Minimum Inhibitory Concentrations (MIC) (E. coli (TG1)): 8 µg/mL; Minimum Inhibitory Concentrations (MIC) (S. aureus (ATCC 25923)): 1 µg/mL; Minimum Inhibitory Concentrations (MIC) (E. coli (TG1) (pTZ19U-3) [6]): Inactive
